The source of these data is patent US20240025891A1 (Celgene Corporation, priority 2020, published 2024).

pIC50: −log10 of the molar value.

The subject of the assay is Dirofilaria immitis microfilariae and 4th stage larvae (L4). As to the kind of experiment: Heartworm screen Dirofilaria immitis (DiMF and DiL4 assays). The conditions noted are these: read-out: D. immitis Act class. The format is cell-based. The protocol:
Heartworm Screen Dirofilaria immitis (D. immitis)
Dirofilaria immitis, Microfilaria (DiMF) Assay. Compounds were dissolved and serially diluted in DMSO. Aliquots were spotted to the empty wells of assay plates. Media and microfilariae of Dirofilaria immitis were added to each well to dilute the test compounds to the desired concentrations. Assay plates were incubated for approximately 72 hours, and the larvae in each well were observed microscopically for drug effect. Microfilariae in each well were assessed subjectively for survival or paralysis, and results were reported as Minimum Effective Dose (MED).
Dirofilaria immitis, L4 stage (DiL4) Assay. Compounds were dissolved and serially diluted in DMSO. Aliquots were spotted to the empty wells of assay plates. Media and 4th stage larvae (L4) of Dirofilaria immitis were added to each well to dilute the test compounds to the desired concentrations. Assay plates were incubated for approximately 72 hours, and the larvae in each well were observed microscopically for drug effect. Larvae in each well were assessed subjectively for survival or paralysis, and results were reported as Minimum Effective Dose (MED).
Active and selective (DiL4 vs. DiMF potency) example compounds were subsequently evaluated in heartworm positive dog studies to correlate the in vitro selectivity profile with in vivo effects on circulating microfilariae.
As for `Cc1ccc(-c2csc(Nc3cc(C)ccn3)n2)nc1` [Example 1, N-(4-Methylpyridin-2-yl)-4-(5-methylpyridin-2-yl)thiazol-2-amine], the pIC50 is more than 6.70.
Next, `COc1cccnc1-c1csc(Nc2cc(C)ccn2)n1` [Example 7]: 6.30 to 6.70; `Cc1cccnc1Nc1nc(-c2ccc(OC3CC3)cn2)cs1` [Example 48]: 6.30 to 6.70; `CCOc1cccc(-c2csc(Nc3ncccc3C)n2)n1` [Example 71]: 5.30 to 6.30.
Take `CCOc1cccnc1-c1csc(Nc2cc(C)ccn2)n1` [Example 72, 4-(3-ethoxypyridin-2-yl)-N-(4-methylpyridin-2-yl)thiazol-2-amine]: the pIC50 is more than 6.70.
Next, `CC(=O)N(C)c1cc(C(F)(F)F)cnc1Nc1nc(-c2cc(OC3COC3)ccn2)cs1` [Example 73, N-methyl-N-(2-(4-(4-(oxetan-3-yloxy)pyridin-2-yl)thiazol-2-ylamino)-5-(trifluoromethyl)pyridin-3-yl)acetamide]: 5.30 to 6.30; `CCOc1cnc(-c2csc(Nc3cc(C)ccn3)n2)c(C)c1` [Example 74, 4-(5-ethoxy-3-methylpyridin-2-yl)-N-(4-methylpyridin-2-yl)thiazol-2-amine]: more than 6.70; `CCOc1cnc(-c2csc(Nc3ncccc3C)n2)c(C)c1` [Example 75, 4-(5-ethoxy-3-methylpyridin-2-yl)-N-(3-methylpyridin-2-yl)thiazol-2-amine]: more than 6.70.
Next, `CC(=O)N(C)c1cc(C(F)(F)F)cnc1Nc1nc(-c2cc3c(cn2)N(C)CC3)cs1` [Example 76, N-methyl-N-(2-(4-(1-methyl-2,3-dihydro-1H-pyrrolo[2,3-c]pyridin-5-yl)thiazol-2-ylamino)-5-(trifluoromethyl)pyridin-3-yl)acetamide]: 5.30 to 6.30.
As to `CCOc1cccnc1-c1csc(Nc2ncccc2C)n1` [Example 77, 4-(3-ethoxypyridin-2-yl)-N-(3-methylpyridin-2-yl)thiazol-2-amine], the pIC50 was more than 6.70.
Next, `CCOc1cccc(-c2csc(Nc3cc(C)ccn3)n2)n1` [Example 78, 4-(6-ethoxypyridin-2-yl)-N-(4-methylpyridin-2-yl)thiazol-2-amine]: 5.30 to 6.30; `CCOc1ccc(-c2csc(Nc3ncc(F)cc3C)n2)nc1` [Example 79, 4-(5-ethoxypyridin-2-yl)-N-(5-fluoro-3-methylpyridin-2-yl)thiazol-2-amine]: 6.30 to 6.70.
`CSc1ccc(-c2csc(Nc3ncccc3C)n2)nc1` [Example 80, N-(3-methylpyridin-2-yl)-4-(5-(methylthio)pyridin-2-yl)thiazol-2-amine]: the pIC50 is more than 6.70.
Next, `CCOc1ccc(-c2csc(Nc3ccc(C)cn3)n2)nc1` [Example 81, 4-(5-ethoxypyridin-2-yl)-N-(5-methylpyridin-2-yl)thiazol-2-amine]: more than 6.70; `CC(=O)N(C)c1cc(C(F)(F)F)cnc1Nc1nc(-c2cc(OC(C)C)ccn2)cs1` [Example 82, N-(2-(4-(4-isopropoxypyridin-2-yl)thiazol-2-ylamino)-5-(trifluoromethyl)pyridin-3-yl)-N-methylacetamide]: 6.30 to 6.70.
To `CCOc1ccc(-c2csc(Nc3ncccc3C3CC3)n2)nc1` [Example 83, N-(3-cyclopropylpyridin-2-yl)-4-(5-ethoxypyridin-2-yl)thiazol-2-amine] belongs 5.30 to 6.30.
Turning to `CCOc1ccc(-c2csc(Nc3ncc(C(F)(F)F)cc3C)n2)nc1` [Example 84, 4-(5-ethoxypyridin-2-yl)-N-(3-methyl-5-(trifluoromethyl)pyridin-2-yl)thiazol-2-amine], the pIC50 is 6.30 to 6.70.
To `CCOc1ccc(-c2csc(Nc3ccc(Cl)cn3)n2)nc1` [Example 85, N-(5-chloropyridin-2-yl)-4-(5-ethoxypyridin-2-yl)thiazol-2-amine] belongs 5.30 to 6.30; to `CCOc1ccc(-c2csc(Nc3nc(C)ccc3C)n2)nc1` [Example 86, N-(3,6-dimethylpyridin-2-yl)-4-(5-ethoxypyridin-2-yl)thiazol-2-amine], 6.30 to 6.70.
As for `CCOc1ccc(Nc2nc(-c3ccc(OCC)cn3)cs2)nc1` [Example 87, N,4-bis(5-ethoxypyridin-2-yl)thiazol-2-amine], the pIC50 was more than 6.70.
Regarding `CCOc1ccc(-c2csc(Nc3ncc(C)cc3C)n2)nc1` [Example 88, N-(3,5-dimethylpyridin-2-yl)-4-(5-ethoxypyridin-2-yl)thiazol-2-amine], the pIC50 is more than 6.70.
Take `Cc1ccnc(Nc2nc(-c3ccc(Cl)cn3)cs2)c1` [Example 89, 4-(5-chloropyridin-2-yl)-N-(4-methylpyridin-2-yl)thiazol-2-amine]: the pIC50 was 6.30 to 6.70.
As for `CCOc1ccc(-c2csc(Nc3cccc(C)n3)n2)nc1` [Example 90, 4-(5-ethoxypyridin-2-yl)-N-(6-methylpyridin-2-yl)thiazol-2-amine], the pIC50 is 5.30 to 6.30.
Next, `CCOc1ccc(-c2csc(Nc3cc(C)ccn3)n2)nc1` [Example 91, 4-(5-ethoxypyridin-2-yl)-N-(4-methylpyridin-2-yl)thiazol-2-amine]: more than 6.70; `Cc1ccnc(Nc2nc(-c3ncccc3C#N)cs2)c1` [Example 92, 2-(2-(4-methylpyridin-2-ylamino)thiazol-4-yl)nicotinonitrile]: 5.30 to 6.30.
As to `CC(=O)N(C)c1cc(C(F)(F)F)cnc1Nc1nc(-c2ccc(OC(C)C)cn2)cs1` [Example 93, N-(2-(4-(5-isopropoxypyridin-2-yl)thiazol-2-ylamino)-5-(trifluoromethyl)pyridin-3-yl)-N-methylacetamide], the pIC50 was 5.30 to 6.30.
`Cc1cccnc1Nc1nc(-c2ccc(Cl)cn2)cs1` [Example 94, 4-(5-chloropyridin-2-yl)-N-(3-methylpyridin-2-yl)thiazol-2-amine]: the pIC50 was 6.30 to 6.70.
To `CCOc1ccc(-c2csc(Nc3ccc(C(F)(F)F)cn3)n2)nc1` [Example 95, 4-(5-ethoxypyridin-2-yl)-N-(5-(trifluoromethyl)pyridin-2-yl)thiazol-2-amine] belongs more than 6.70; to `COc1ccnc(-c2csc(Nc3ncc(C(F)(F)F)cc3N(C)C(C)=O)n2)c1` [Example 96, N-(2-(4-(4-methoxypyridin-2-yl)thiazol-2-ylamino)-5-(trifluoromethyl)pyridin-3-yl)-N-methylacetamide], 6.30 to 6.70; to `Cc1cc(C(F)(F)F)cnc1Nc1nc(-c2cc3c(cn2)N(C)CC3)cs1` [Example 97, 4-(1-methyl-2,3-dihydro-1H-pyrrolo[2,3-c]pyridin-5-yl)-N-(3-methyl-5-(trifluoromethyl)pyridin-2-yl)thiazol-2-amine], more than 6.70.
Next, `Cc1ccnc(Nc2nc(-c3cc(OC4CN(C)C4)ccn3)cs2)c1` [Example 98, 4-(4-(1-methylazetidin-3-yloxy)pyridin-2-yl)-N-(4-methylpyridin-2-yl)thiazol-2-amine]: 5.30 to 6.30; `Cc1ccnc(-c2csc(Nc3ncccc3-c3ccccc3)n2)c1` [Example 99, 4-(4-methylpyridin-2-yl)-N-(3-phenylpyridin-2-yl)thiazol-2-amine]: more than 6.70; `Cc1cccnc1-c1csc(Nc2cc(-c3ccccc3)ccn2)n1` [Example 100, 4-(3-methylpyridin-2-yl)-N-(4-phenylpyridin-2-yl)thiazol-2-amine]: 6.30 to 6.70.
